Results from the METLIN SMRT retention time set (Domingo-Almenara et al. 2019).

assay: gradient 5% acetonitrile 3 min, to 50% in 2 min, to 85% in 15 min, held 3 min, 100 µL/min; details: column: Zorbax Extend-C18 2.1 x 50 mm; eluents: water / acetonitrile, 0.1% formic acid
Summary of the method: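 Each retention time is based on an adduct peak selected computationally and verified by manual inspection. Measurements used HPLC–quadrupole time-of-flight mass spectrometry in positive and negative ionization mode on mixtures of ~100 pure standards. Chromatography ran on a Zorbax Extend-C18 column (2.1 × 50 mm, 1.8 μm) at 100 μL/min with water and acetonitrile, each containing 0.1% formic acid, and dead and dwell volumes of 40 μL and 900 μL.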

| Compound | RP-LC retention time [s] |
| --- | --- |
| O=C1CC(C(=O)N(Cc2cccnc2)c2nc3ccccc3s2)CN1c1ccccc1 (centres undefined) | 695 |
| Cc1nccnc1Sc1ccccc1 | 956 |
| Cc1noc(C)c1CCC(=O)Nc1nnc(-c2ccsc2)o1 | 628 |
| Cc1nc2cc(-c3noc(-c4cc(Cl)ccc4Cl)n3)ccc2o1 | 1290 |
| CN1C(=O)COc2cc(-c3noc(C(=O)N4CCCCCC4)n3)ccc21 | 919 |
| COCCC1(NC(=O)c2ccoc2)CCN(CC2CC2)CC1 | 581 |
| O=C(NC1CCCCCC1)C1CCN(S(=O)(=O)c2cc(-c3noc(C4CC4)n3)cs2)CC1 | 1040 |
| Cc1ccc(Nc2c(-c3cc(Br)ccc3F)nc3ccc(Cl)cn23)cc1 | 1080 |
| O=C1OC(Nc2nc(-c3cccc(Br)c3)cs2)c2ccccc21 (centres undefined) | 862 |
| Cc1nc2cc(-c3noc(-c4ccc(Cl)s4)n3)ccc2o1 | 1230 |
| C=CCn1c(=O)c2sc(N(CC)CC)nc2n(CC(=O)Nc2c(C)cccc2C)c1=O | 830 |
| Cc1cc2nc(C(=O)Nc3ccc(F)c(Cl)c3)cc(C)n2n1 | 1080 |
| Cn1nc(C(=O)Nc2ccc(S(N)(=O)=O)cc2)ccc1=O | 582 |
| Cc1ccc(NC(=O)Cn2ncc3c(c2=O)N(CC2CC2)C(=O)CS3)cc1C | 812 |
| Cc1cc(-c2nnc(C3CCC3)o2)c(C)n1CC(=O)Nc1cccc(Cl)c1 | 960 |
| COCCc1noc(C2CN(S(=O)(=O)c3cccc(F)c3)C2)n1 | 784 |
| Cc1nc(N2CCOCC2)c2c(C(=O)N3CCN(c4cccc(C)c4C)CC3)c(C)oc2n1 | 1000 |
| Cc1ccc(NC(=O)Cn2nc3nc(N4CCOCC4)ccn3c2=O)cc1F | 675 |
| COc1cc(NC(C)=O)c2ncccc2c1Br | 960 |
| O=c1c2scc(-c3ccc(Br)cc3)c2ncn1Cc1cccnc1 | 775 |
| CCN1CCN(S(=O)(=O)c2c(C)nn(-c3ccc(-c4ccc(C)cc4)nn3)c2C)CC1 | 708 |
| CN(NC1=NCCO1)c1ccc2ccccc2c1 | 620 |
| O=C(Nc1c(-c2ccccc2)nc2ccccn12)c1ccc(Br)cc1 | 684 |
| O=C(c1ccncc1)N1CCCCC1c1nc(-c2ccncc2)no1 (centres undefined) | 689 |
| CCCCn1c(=O)c2ccccc2n(Cc2nc(-c3cccc(Cl)c3)no2)c1=O | 1250 |
| CN(C)C[C@@H]1CN(Cc2ccccn2)C[C@H]1NS(=O)(=O)c1cccc(F)c1 | 553 |
| C=CCN(CC=C)S(=O)(=O)c1ccc(C(=O)Nc2nc3c(s2)CCc2ccccc2-3)cc1 | 1240 |

| Compound | RP-LC retention time [s] |
| --- | --- |
| Nc1nc(NCc2ccccc2Cl)ncc1[N+](=O)[O-] | 778 |
| COc1ccc(-c2cc3nc(C)cc(N4CCN(c5ccccn5)CC4)n3n2)cc1OC | 583 |
| O=C(CC(F)(F)F)N1CCCC(CCc2nnc(C3CCOCC3)o2)C1 (centres undefined) | 682 |
| CCN1C(=O)COc2cc(-c3noc(C(=O)NCCC4=CCCCC4)n3)ccc21 | 1120 |
| CS(=O)(=O)c1ccc(Cc2nnc(NC(=O)C3CCCC3)o2)cc1 | 632 |
| CCCN1CCN(C(=O)C2CC(=O)N(c3ccc4c(c3)CCN4C(=O)CC)C2)CC1 (centres undefined) | 566 |
| CCOC(=O)Cc1csc(NC(=O)CCS(=O)(=O)c2ccccc2)n1 | 844 |
| Cc1c(N2C(=O)[C@@H]3[C@H](O)CCN3C2=O)ccc(C#N)c1Cl | 765 |
| O=C1c2cc(NC(=O)C3(c4cccs4)CCCC3)ccc2OCCC2CCCCN12 (centres undefined) | 974 |
| Cc1cc(C)cc(NC(=O)N2CC(c3nc(C)no3)C3(CCOCC3)C2)c1 (centres undefined) | 706 |
| O=C1CC(c2ccccc2)N(S(=O)(=O)c2cccc3nsnc23)CCCCCN1 (centres undefined) | 848 |
| O=C(O)CC1Sc2ccccc2NC1=O (centres undefined) | 607 |
| Cc1cc(C)c2c(N(C)C)nc(C(=O)NC(C)c3ccccn3)nc2n1 (centres undefined) | 559 |
| Cc1cccc(-c2nnc(CC(=O)NCC(C)C)o2)c1 | 790 |
| CS(=O)(=O)N1CCN(C(=O)c2ccsc2)CC1 | 606 |
| COc1cc2c(cc1CNC(=O)Cn1cc(C(=O)c3ccco3)c3ccccc31)OCCCO2 | 902 |
| Cc1cc2nn(CC(=O)Nc3ccccc3)c(=O)n2c(-c2ccccc2)n1 | 769 |
| CC(C)Cn1cc(CCNS(=O)(=O)c2ccc(Cl)s2)c2cccnc21 | 987 |
| CCCCN1C(=O)C(C)(C(=O)NCc2ccccc2)Oc2cccnc21 (centres undefined) | 972 |
| CCOC(=O)C(=O)Nc1ccc(C(F)(F)F)cc1 | 834 |
| Nc1cc(C2CCN(S(=O)(=O)Cc3ccccc3)CC2)no1 | 732 |
| CCn1ccc(C(=O)N2c3ccccc3CC2c2nc(C(C)C)no2)n1 (centres undefined) | 970 |
| COCc1nc(C2CCN(C(=O)c3ccco3)C2)no1 (centres undefined) | 648 |
| CCOc1ccc2nc(C(=O)NCc3ccccc3Br)cn2n1 | 947 |
| Cc1nn(-c2ccc(-c3ccccc3)nn2)c(C)c1S(=O)(=O)NCCC(C)C | 1130 |
| Cc1nn(C)c(C)c1CCN(C)C(=O)CC1=C2CCCCC2N(C(C)C)C1=O (centres undefined) | 648 |

More lines, now with the values ahead:

| RP-LC retention time [s] | Compound |
| --- | --- |
| 545 | CN(C)c1ccc(CNC(=O)C2CCN(c3cncnc3N3CCOCC3)CC2)cc1 |
| 662 | CCOc1ccc(S(=O)(=O)N2CCCC(C(=O)NCCO)C2)cc1 (centres undefined) |
| 867 | Cc1nc(-c2ccc(N3CCN(C(=O)c4nccc5ccccc45)CC3)nc2)sc1C |
| 1310 | Cc1cc(C)c(C)c(S(=O)(=O)N2CCCC2c2nc(-c3ccc(F)cc3)no2)c1C (centres undefined) |
| 829 | COc1ccc(OC)c(NC(=O)C2CCCN2S(=O)(=O)c2cc3c(cc2Cl)NC(=O)CO3)c1 (centres undefined) |
| 825 | CC(C)N1C(=O)Cc2ccccc2C1C(=O)NCc1ccccc1Br (centres undefined) |
| 781 | CN(C)C(=O)CCc1ccc2c(c1)CN(C(=O)CC1CCCC1)CCO2 |
| 838 | CCc1cccc(NC(=O)C2CCN(S(=O)(=O)c3ccc4c(c3)NC(=O)C(C)O4)CC2)c1 (centres undefined) |
| 655 | Cc1ccc(NC(=O)Cn2cnc3nc(N4CCC(C(=O)NC5CC5)CC4)sc3c2=O)c(F)c1 |
| 1020 | CCn1cc(-c2nc(C)c(C(=O)Nc3ccc(C(=O)OC)cc3)s2)c2cccnc21 |
| 1290 | COc1ccc(-c2ncc3c(=O)n(Cc4ccc(Br)cc4F)c(=O)n(C)c3n2)cc1 |
| 802 | COc1cccc(CNC(=O)C2(C)CCCN(C(=O)Nc3ccc4c(c3)OCCO4)C2)c1 (centres undefined) |
| 889 | Cc1cc(C(=O)Nc2ccc(F)cc2)nc2ccnn12 |
| 626 | C=CCn1c(=O)c(=O)n(Cc2ccc(C(=O)N3CCN(c4ccccn4)CC3)cc2)c2ccccc21 |
| 1070 | Cn1cccc1C(=O)C(=O)Nc1ccc(F)cc1Cl |
| 680 | COc1ccc(CC(=O)Nc2ccc3ncnc(N4CCCC4)c3c2)cc1Cl |
| 1190 | O=C(Nc1ccccc1Cl)c1cc(C2CC2)n2nccc2n1 |
| 751 | COc1ccc(OC)c(NC(=O)N2CCC(OC3CCN(S(C)(=O)=O)CC3)CC2)c1 |

| RP-LC retention time [s] | Compound |
| --- | --- |
| 759 | Cc1cccc(N2CCN(C(=O)c3ccc(CN4CCN(C(C)C)C(=O)C4=O)cc3)CC2)c1 |
| 1100 | COC1CN(c2ccc(C)cc2)C12CCN(C(=O)C1(c3ccccc3)CC1)CC2 (centres undefined) |
| 1100 | CCc1ccc(N2CC(c3noc(-c4ccccc4F)n3)CC2=O)cc1 (centres undefined) |
| 834 | O=C(c1cccs1)N1CCN(c2ccc(=O)n(-c3ccc(Cl)cc3)n2)CC1 |
| 777 | COc1ccc(OCC(=O)N2CCC(C(=O)NCCc3csc(-c4cccs4)n3)CC2)cc1 |
| 751 | Cc1nn(-c2ccccc2)cc1C(=O)N1CCC(CC(=O)NCCc2c[nH]c3ccccc23)CC1 |
| 765 | CSc1ccc(CCNC(=O)c2ccc3c(c2)nc(C)c(=O)n3C)cc1 |
| 830 | O=C(CC1CCN(C(=O)Nc2ccc(Br)cc2)CC1)N1CCCCC1 |
| 632 | CC(NC(=O)CCC(=O)N1CCc2c(c(C(=O)N3CCOCC3)nn2C)C1)c1ccccc1 (centres undefined) |
| 1050 | O=C(Nc1nc(-c2ccc(F)cc2)cs1)c1c(-c2ccc(F)cc2)nc2n1CCS2(=O)=O |
| 854 | CC(C)NC(=O)c1ccc(OCC2CCN(C(=O)c3ccc(F)cc3F)CC2)cc1 |
| 1090 | Cc1oc2ccn(Cc3ccccc3F)c(=O)c2c1C(=O)NCc1ccc(F)cc1 |
| 1050 | CCOc1ccc(-c2cc3c(=O)n(Cc4nc(-c5ccccc5OC)no4)ncn3n2)cc1 |
| 754 | COc1cccc(-c2cc(C(=O)N3CCN(c4ncccn4)CC3)n(C)n2)c1 |
| 787 | CN[C@@H](C)C(=O)N[C@H](C(=O)N1CCC[C@H]1c1nc(C(=O)c2ccc(F)cc2)cs1)C1CCCCC1 |
| 922 | COc1cccc(-c2ccnc3nc(Cc4ccc(F)cc4)nn23)c1 |
| 698 | COc1ccc(-c2cn3c(CC(=O)N4CCN(c5ccccc5OC)CC4)csc3n2)cc1OC |
| 1100 | Cc1oc2ccn(Cc3ccc(F)cc3)c(=O)c2c1C(=O)NCc1ccc(F)cc1F |
